Several values for one entry are separate records, joined by “and”; a condition that tells them apart may be missing. Equal values may be shown once.
How the values were obtained:
IF2 = target: T1, IF2 (Escherichia coli, UniProt P0A705); test: IF2-Bpy-tRNAi-GNP ternary complex formation by MST; assay type: binding; settings: S2A Fig
T1 construct: 6xHis (N); made in house
Description: Supplementary file pbio.3000593.s002.pdf: S2 Fig IF2-Bpy-tRNAi complex formation as a function of guanosine nucleotides. (A) IF2 concentration dependencies for Bpy-tRNAi binding in the presence of 0.5 mM of the indicated guanosine nucleotides to build IF2-tRNA-GNP ternary complexes (TCs). […] Three to five measurements were performed; mean and standard deviation are plotted (S1 Data). […] (PDF) Click here for additional data file.

[1] = target: T2, 70S pre-IC (50S joining to 30S IC) (Escherichia coli, UniProt P0A705); test: 70S pre-IC formation by light scattering, stopped-flow; assay type: biochemical; parameters: K1, best-fit value / k2, best-fit value: unit not given here; settings: for kfast (s-1) Avg: light scattering
T2 construct: 6xHis (N); made in house
T2 sequence (P0A705 whole entry, looked up): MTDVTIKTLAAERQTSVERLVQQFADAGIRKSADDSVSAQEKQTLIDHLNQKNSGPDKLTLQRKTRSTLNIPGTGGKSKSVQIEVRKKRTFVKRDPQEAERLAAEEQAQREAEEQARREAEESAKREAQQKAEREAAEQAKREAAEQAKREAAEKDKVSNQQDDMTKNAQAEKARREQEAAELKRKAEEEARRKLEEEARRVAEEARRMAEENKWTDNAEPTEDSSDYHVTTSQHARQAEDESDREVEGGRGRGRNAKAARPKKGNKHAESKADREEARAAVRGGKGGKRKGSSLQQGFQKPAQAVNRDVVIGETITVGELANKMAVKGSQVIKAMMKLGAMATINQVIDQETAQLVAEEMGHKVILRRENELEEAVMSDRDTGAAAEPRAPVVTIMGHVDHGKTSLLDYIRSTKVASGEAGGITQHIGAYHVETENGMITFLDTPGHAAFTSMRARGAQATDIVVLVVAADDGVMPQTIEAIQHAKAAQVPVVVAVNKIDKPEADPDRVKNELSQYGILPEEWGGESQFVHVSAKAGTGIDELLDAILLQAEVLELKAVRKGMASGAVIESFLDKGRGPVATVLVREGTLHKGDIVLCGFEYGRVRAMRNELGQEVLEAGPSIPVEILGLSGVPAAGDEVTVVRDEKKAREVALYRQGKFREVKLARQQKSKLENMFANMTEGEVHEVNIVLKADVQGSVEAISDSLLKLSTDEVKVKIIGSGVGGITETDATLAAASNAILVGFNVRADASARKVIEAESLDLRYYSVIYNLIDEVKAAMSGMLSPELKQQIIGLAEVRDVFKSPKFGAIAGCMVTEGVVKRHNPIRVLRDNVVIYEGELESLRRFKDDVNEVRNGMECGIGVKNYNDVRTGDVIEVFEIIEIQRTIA
Description: (§1) Continuous lines indicate nonlinear regression fittings with a quadratic equation. Three measurements were performed; mean and standard deviation are plotted (S1 Data). (B) as (A) to measure the concentration dependence for each tested guanosine nucleotide at constant IF2 (1 μM). […] Continuous lines show best fits using exponential functions. (D) Formation of 70S IC as measured by Bpy-tRNAi accommodation in the P site of the ribosome; 0.1 μM 30S ICs were formed with Bpy-tRNAi and rapidly mixed with 0.3 μM 50S subunits on a stopped-flow apparatus as described in [14]. Colors are as in (C). Continuous lines show best fits using an exponential function for a single reaction step. Each stopped-flow trace results from the mean of 5 to 7 replicates.
(A) Scheme of 70S IC formation. […] Time traces were analyzed by nonlinear regression with exponential terms. […] Formation of 70S IC, as measured by Bpy-tRNAi accommodation in the absence (F) or presence of 200 μM ppGpp (G). Time traces were analyzed by nonlinear regression with one exponential term. […] Continuous lines show best fits using an exponential function for a single reaction step. All time traces are mean values of 5 to 10 replicates. Bar graphs show mean and standard errors (error bars) derived from the nonlinear regression fitting (D,E,H,I) (S1 Data).
To measure 70S pre-IC formation, a SX-20 stopped-flow instrument (Applied Photophysics, Leatherhead, UK) was set up for LS recording with an excitation wavelength of 430 nm. Scattered light was measured at an angle of 90° without a filter. Pseudo first-order conditions were approximated by using ≥3-fold excess of 50S subunits over 30S ICs; 0.2 μM 30S ICs were rapidly mixed in the instrument with 0.6 μM 50S at 25 °C. Bpy-tRNAi accommodation was measured essentially as described elsewhere. Briefly, 0.2 μM 30S ICs were formed using Bpy-tRNAi and rapidly mixed with 0.6 μM 50S at 25 °C. Fluorescence was excited at 470 nm and measured after a 495-nm longpass filter. Individual traces (6–11 traces) were averaged, and the resulting kinetic curve was approximated by single (F = A0 + A1*exp (-kapp1*t)) or double (F = A0 + A1*exp (-kapp1*t) + A2*exp (-kapp2*t)) exponential fit using Graphpad Prism 6.0 software (GraphPad, San Diego, California).

[2] = target: T3, 30S IC (30S-bound IF2, Bpy-tRNAi) (Escherichia coli, UniProt P0A705); test: 30S IC formation measured by MST at increasing concentrations of IF2 with guanosine nucleotides; assay type: binding; settings: Fig 2A
T3 construct: 6xHis (N); made in house
T3 sequence (P0A705 whole entry, looked up): as above
Excerpt: To monitor the interaction of initiator tRNA and 30S ribosomal subunits, we used Microscale Thermophoresis (MST) with a fluorescently labelled initiator tRNA (Bpy-tRNAi) (Fig 1B). MST allows to measure fluorescence in a constrained space. Changes on the readout derive from molecular drifts resulting from small thermal equilibrium perturbations. Upon equilibrium perturbations, the patterns of Bpy-tRNAi migration away from the observation space are related to bound and unbound states (Fig 1B). […] On the contrary, a decrease in thermophoresis indicated the dissociation of Bpy-tRNAi. The relation between fluorescence measured at both equilibriums (Ff to Fi, after and prior to the perturbation, respectively) as a function of ligand concentration allowed to determine dissociation constants of the interaction (Fig 1C).
as §1

[3] = mInfA, fit Y=A0+A1*exp(-K1*x)+k2*x
[4] = mMF1, fit Y=A0+A1*exp(-K1*x)+k2*x
[5] = mTufA, fit Y=A0+A1*exp(-K1*x)+k2*x

T1 sequence (P0A705 whole entry): as the sequence (P0A705 whole entry, looked up) above

Which results are given for `Nc1nc2c(ncn2[C@@H]2O[C@H](COP(=O)(O)OP(=O)(O)O)[C@@H](O)[C@H]2O)c(=O)[nH]1` [GDP, guanosine diphosphate]?
MST Average (IF2; IF2 0.08 µM): 942.60 a.u.; MST Replicates (IF2; IF2 0.08 µM): 949.60 a.u. and 944.98 a.u. and 933.23 a.u.; MST Average (IF2; IF2 0.16 µM): 942.82 a.u.; MST Replicates (IF2; IF2 0.16 µM): 948.93 a.u. and 934.15 a.u. and 945.38 a.u.; MST Average (IF2; IF2 0.31 µM): 943.82 a.u.; MST Replicates (IF2; IF2 0.31 µM): 946.47 a.u. and 934.49 a.u. and 950.50 a.u.; MST Average (IF2; IF2 0.63 µM): 944.11 a.u.; MST Replicates (IF2; IF2 0.63 µM): 935.16 a.u. and 946.20 a.u. and 950.97 a.u.; MST Average (IF2; IF2 1.25 µM): 945.61 a.u.; MST Replicates (IF2; IF2 1.25 µM): 951.42 a.u. and 947.72 a.u. and 937.68 a.u.; MST Average (IF2; IF2 2.50 µM): 948.90 a.u.; MST Replicates (IF2; IF2 2.50 µM): 941.84 a.u. and 953.50 a.u. and 951.35 a.u.; MST Average (IF2; IF2 5.00 µM): 954.49 a.u.; MST Replicates (IF2; IF2 5.00 µM): 948.07 a.u. and 955.91 a.u. and 959.48 a.u.; MST Average (IF2; IF2 10.00 µM): 962.55 a.u.; MST Replicates (IF2; IF2 10.00 µM): 958.33 a.u. and 964.33 a.u. and 964.97 a.u.; MST Average (IF2; IF2 20.00 µM): 973.27 a.u.; MST Replicates (IF2; IF2 20.00 µM): 973.71 a.u. and 974.19 a.u. and 971.91 a.u.; MST Average (IF2; IF2 40.00 µM): 980.27 a.u.; MST Replicates (IF2; IF2 40.00 µM): 984.66 a.u. and 983.20 a.u. and 972.95 a.u.; efficiency (amplitude) of 70S pre-IC formation ([1]; 0.2 mM nucleotide, no GTP): reduced efficiencies; rapid 70S pre-IC formation in the absence of GTP ([1]; 0.2 mM nucleotide, noncompetitive (S6 Fig)): some transitions; A0, best-fit value [1, 3]: 1.03; K1, best-fit value [1, 3]: 1.58; k2, best-fit value [1, 3]: 0.0017 and 0.00169; A0, best-fit value [1, 4]: 1.04; K1, best-fit value [1, 4]: 2.79; k2, best-fit value [1, 4]: 0.001; LS amplitude (a.u.) Avg ([1]; mRNA mInfA): 0.028 a.u.; kfast (s-1) Avg ([1]; mRNA mInfA): 1.58 s⁻¹; LS amplitude (a.u.) Avg ([1]; mRNA mMF1): 0.027 a.u.; kfast (s-1) Avg ([1]; mRNA mMF1): 2.79 s⁻¹; LS amplitude (a.u.) Avg ([1]; mRNA mTufA): 0.058 a.u.; kfast (s-1) Avg ([1]; mRNA mTufA): 3.39 s⁻¹; A0, best-fit value [1, 5]: 1.07; K1, best-fit value [1, 5]: 3.39; k2, best-fit value [1, 5]: 0.0016 and 0.00162; MST Average ([2]; IF2 0.16 µM): 936.66 a.u.; MST Replicates (a.u.) ([2]; IF2 0.16 µM, in the presence of the nucleotide): 938.79 a.u. and 935.06 a.u. and 936.14 a.u.; MST Average ([2]; IF2 0.31 µM): 942.67 a.u.; MST Replicates (a.u.) ([2]; IF2 0.31 µM): 943.24 a.u. and 941.18 a.u. and 943.58 a.u.; MST Average ([2]; IF2 0.63 µM): 949.91 a.u.; MST Replicates (a.u.) ([2]; IF2 0.63 µM): 951.36 a.u. and 947.80 a.u. and 950.56 a.u.; MST Average ([2]; IF2 1.25 µM): 961.16 a.u.; MST Replicates (a.u.) ([2]; IF2 1.25 µM): 962.03 a.u. and 959.55 a.u. and 961.91 a.u.; MST Average ([2]; IF2 2.50 µM): 966.51 a.u.; MST Replicates (a.u.) ([2]; IF2 2.50 µM): 967.31 a.u. and 965.43 a.u. and 966.81 a.u.; MST Average ([2]; IF2 5.00 µM): 968.29 a.u.; MST Replicates (a.u.) ([2]; IF2 5.00 µM): 968.72 a.u. and 967.06 a.u. and 969.08 a.u.

What does the source list for `Nc1nc2c(ncn2[C@@H]2O[C@H](COP(=O)(O)OP(=O)(O)OP(=O)(O)O)[C@@H](O)[C@H]2O)c(=O)[nH]1` [GTP, guanosine triphosphate]?
MST Average (IF2; IF2 0.08 µM): 945.53 a.u.; MST Replicates (IF2; IF2 0.08 µM): 952.20 a.u. and 948.28 a.u. and 936.11 a.u.; MST Average (IF2; IF2 0.16 µM): 947.39 a.u.; MST Replicates (IF2; IF2 0.16 µM): 938.55 a.u. and 949.51 a.u. and 954.10 a.u.; MST Average (IF2; IF2 0.31 µM): 948.97 a.u.; MST Replicates (IF2; IF2 0.31 µM): 951.38 a.u. and 955.20 a.u. and 940.31 a.u.; MST Average (IF2; IF2 0.63 µM): 950.03 a.u.; MST Replicates (IF2; IF2 0.63 µM): 955.50 a.u. and 952.44 a.u. and 942.15 a.u.; MST Average (IF2; IF2 2.50 µM): 955.81 a.u.; MST Replicates (IF2; IF2 2.50 µM): 960.19 a.u. and 957.37 a.u. and 949.88 a.u.; MST Average (IF2; IF2 5.00 µM): 963.92 a.u.; MST Replicates (IF2; IF2 5.00 µM): 963.66 a.u. and 965.85 a.u. and 962.23 a.u.; MST Average (IF2; IF2 10.00 µM): 973.12 a.u.; MST Replicates (IF2; IF2 10.00 µM): 974.68 a.u. and 972.27 a.u. and 972.40 a.u.; MST Average (IF2; IF2 20.00 µM): 982.93 a.u.; MST Replicates (IF2; IF2 20.00 µM): 983.50 a.u. and 982.36 a.u.; MST Average (IF2; IF2 40.00 µM): 989.70 a.u.; MST Replicates (IF2; IF2 40.00 µM): 993.21 a.u. and 991.95 a.u. and 983.94 a.u.; kapp of 70S pre-IC formation (LS) ([1]; 30S complexes formed with 0.2 mM nucleotide, mixed with 50S subunits): 2.9 ± 0.3 s^–1; A0, best-fit value [1, 3]: 1.08; K1, best-fit value [1, 3]: 1.97; k2, best-fit value [1, 3]: 0.0017 and 0.00173; A0, best-fit value [1, 4]: 1.05; A1, best-fit value [1, 4]: -0.035; K1, best-fit value [1, 4]: 1.98; k2, best-fit value [1, 4]: 0.000317; LS amplitude (a.u.) Avg ([1]; mRNA mInfA): 0.062 a.u.; LS amplitude (a.u.) Avg ([1]; mRNA mMF1): 0.035 a.u.; kfast (s-1) Avg ([1]; mRNA mMF1): 1.98 s⁻¹; LS amplitude (a.u.) Avg ([1]; mRNA mTufA): 0.083 a.u.; kfast (s-1) Avg ([1]; mRNA mTufA): 5.20 s⁻¹; A0, best-fit value [1, 5]: 1.11; K1, best-fit value [1, 5]: 5.20; k2, best-fit value [1, 5]: 0.000653; MST Average ([2]; IF2 0.16 µM): 1029.29 a.u.; MST Average ([2]; IF2 0.31 µM): 1076.43 a.u.; MST Average ([2]; IF2 0.63 µM): 1093.32 a.u.; MST Average ([2]; IF2 1.25 µM): 1094.97 a.u.; MST Average ([2]; IF2 2.50 µM): 1077.58 a.u.; MST Average ([2]; IF2 5.00 µM): 1077.76 a.u.

Source: article PMC7010297, “How the initiating ribosome copes with ppGpp to translate mRNAs” (PLoS Biology, 2020)
